Test results from ChEMBL document CHEMBL4308841, “Synthesis, in vitro antiproliferative activity, and kinase inhibitory effects of pyrazole-containing diarylureas and diarylamides” (Eur J Med Chem, 2018).

How the values were obtained:
HCC 2998 = assay: Growth inhibition of human HCC2998 cells assessed as cell growth at 10 uM incubated for 48 hrs by sulforhodamine B assay relative to control; type: functional; settings: HCC 2998, 48 h, read-out: Activity
Malme-3M = assay: Growth inhibition of human MALME-3M cells assessed as cell growth at 10 uM incubated for 48 hrs by sulforhodamine B assay relative to control; type: functional; settings: read-out: Activity
NCI-H226 = assay: Growth inhibition of human NCI-H226 cells assessed as cell growth at 10 uM incubated for 48 hrs by sulforhodamine B assay relative to control; type: functional; settings: NCI-H226, 48 h, read-out: Activity
MDA-MB-468 [1] = assay: Growth inhibition of human MDA-MB-468 cells assessed as cell growth at 10 uM incubated for 48 hrs by sulforhodamine B assay relative to control; type: functional; settings: MDA-MB-468, 48 h, read-out: Activity
UACC-62 = assay: Growth inhibition of human UACC62 cells assessed as cell growth at 10 uM incubated for 48 hrs by sulforhodamine B assay relative to control; type: functional; settings: UACC-62, 48 h, read-out: Activity
RPMI-8226 = assay: Growth inhibition of human RPMI8226 cells assessed as cell growth at 0.1 uM incubated for 48 hrs by sulforhodamine B assay relative to control; type: functional; settings: RPMI-8226, 48 h, read-out: Activity
786-0 = assay: Growth inhibition of human 786-0 cells assessed as cell growth at 1 uM incubated for 48 hrs by sulforhodamine B assay relative to control; type: functional; settings: 786-0, 48 h, read-out: Activity
COLO 205 = assay: Growth inhibition of human COLO205 cells assessed as cell growth at 10 uM incubated for 48 hrs by sulforhodamine B assay relative to control; type: functional; settings: COLO 205, 48 h, read-out: Activity
MOLT-4 = assay: Growth inhibition of human MOLT4 cells assessed as cell growth at 10 uM incubated for 48 hrs by sulforhodamine B assay relative to control; type: functional; settings: MOLT-4, 48 h, read-out: Activity
UO-31 = assay: Growth inhibition of human UO31 cells assessed as cell growth at 100 uM incubated for 48 hrs by sulforhodamine B assay relative to control; type: functional; settings: UO-31, 48 h, read-out: Activity
SF-295 = assay: Growth inhibition of human SF295 cells assessed as cell growth at 10 uM incubated for 48 hrs by sulforhodamine B assay relative to control; type: functional; settings: SF-295, 48 h, read-out: Activity
NCI-H322M = assay: Growth inhibition of human NCI-H322M cells assessed as cell growth at 10 uM incubated for 48 hrs by sulforhodamine B assay relative to control; type: functional; settings: read-out: Activity
NCI-H23 = assay: Growth inhibition of human NCI-H23 cells assessed as cell growth at 0.1 uM incubated for 48 hrs by sulforhodamine B assay relative to control; type: functional; settings: NCI-H23, 48 h, read-out: Activity
SF-539 = assay: Growth inhibition of human SF539 cells assessed as cell growth at 100 uM incubated for 48 hrs by sulforhodamine B assay relative to control; type: functional; settings: SF-539, 48 h, read-out: Activity
SK-MEL-5 = assay: Growth inhibition of human SK-MEL-5 cells assessed as cell growth at 10 uM incubated for 48 hrs by sulforhodamine B assay relative to control; type: functional; settings: SK-MEL-5, 48 h, read-out: Activity
SW-620 [2] = assay: Growth inhibition of human SW620 cells assessed as cell growth at 0.01 uM incubated for 48 hrs by sulforhodamine B assay relative to control; type: functional; settings: SW-620, 48 h, read-out: Activity
K562 = assay: Growth inhibition of human K562 cells assessed as cell growth at 10 uM incubated for 48 hrs by sulforhodamine B assay relative to control; type: functional; settings: K562, 48 h, read-out: Activity
DU-145 = assay: Growth inhibition of human DU145 cells assessed as cell growth at 0.1 uM incubated for 48 hrs by sulforhodamine B assay relative to control; type: functional; settings: DU-145, 48 h, read-out: Activity
HCT-15 = assay: Growth inhibition of human HCT15 cells assessed as cell growth at 10 uM incubated for 48 hrs by sulforhodamine B assay relative to control; type: functional; settings: HCT-15, 48 h, read-out: Activity
HCT-116 = assay: Growth inhibition of human HCT116 cells assessed as cell growth at 0.01 uM incubated for 48 hrs by sulforhodamine B assay relative to control; type: functional; settings: HCT-116, 48 h, read-out: Activity
Hs-578T = assay: Growth inhibition of human Hs578T cells incubated for 48 hrs by sulforhodamine B assay; type: functional, cell-based
CAKI-1 = assay: Growth inhibition of human Caki1 cells assessed as cell growth at 10 uM incubated for 48 hrs by sulforhodamine B assay relative to control; type: functional; settings: CAKI-1, 48 h, read-out: Activity
MDA-MB-435 = assay: Growth inhibition of human MDA-MB-435 cells assessed as cell growth at 10 uM incubated for 48 hrs by sulforhodamine B assay relative to control; type: functional; settings: MDA-MB-435, 48 h, read-out: Activity
IGROV-1 = assay: Growth inhibition of human IGROV1 cells assessed as cell growth at 10 uM incubated for 48 hrs by sulforhodamine B assay relative to control; type: functional; settings: IGROV-1, 48 h, read-out: Activity
SW-620 [3] = assay: Growth inhibition of human SW620 cells assessed as cell growth at 1 uM incubated for 48 hrs by sulforhodamine B assay relative to control; type: functional; settings: SW-620, 48 h, read-out: Activity
UACC-257 = assay: Growth inhibition of human UACC257 cells assessed as cell growth at 10 uM incubated for 48 hrs by sulforhodamine B assay relative to control; type: functional; settings: UACC-257, 48 h, read-out: Activity
U-251 = assay: Growth inhibition of human U251 cells assessed as cell growth at 10 uM incubated for 48 hrs by sulforhodamine B assay relative to control; type: functional; settings: U-251, 48 h, read-out: Activity
CCRF-CEM = assay: Growth inhibition of human CCRF-CEM cells assessed as cell growth at 10 uM incubated for 48 hrs by sulforhodamine B assay relative to control; type: functional; settings: read-out: Activity
MDA-MB-468 [4] = assay: Growth inhibition of human MDA-MB-468 cells assessed as cell growth at 100 uM incubated for 48 hrs by sulforhodamine B assay relative to control; type: functional; settings: MDA-MB-468, 48 h, read-out: Activity
BT-549 = assay: Growth inhibition of human BT549 cells assessed as cell growth at 10 uM incubated for 48 hrs by sulforhodamine B assay relative to control; type: functional; settings: BT-549, 48 h, read-out: Activity
T47D = assay: Growth inhibition of human T47D cells assessed as cell growth at 10 uM incubated for 48 hrs by sulforhodamine B assay relative to control; type: functional; settings: read-out: Activity
OVCAR-5 = assay: Growth inhibition of human OVCAR5 cells assessed as cell growth at 10 uM incubated for 48 hrs by sulforhodamine B assay relative to control; type: functional; settings: OVCAR-5, 48 h, read-out: Activity
[5] = read-out: LC50 (the source's name)
[6] = read-out: pLC50 (the source's name) (converted)

Row | SMILES | growth at 10 µM (HCC 2998) | growth at 10 µM (Malme-3M) | growth at 10 µM (NCI-H226) | growth at 10 µM (MDA-MB-468 [1]) | growth at 10 µM (UACC-62) | growth at 0.1 µM (RPMI-8226) | growth at 1 µM (786-0) | growth at 10 µM (COLO 205) | growth at 10 µM (MOLT-4) | growth at 100 µM (UO-31) | growth at 10 µM (SF-295) | growth at 10 µM (NCI-H322M) | growth at 0.1 µM (NCI-H23) | growth at 100 µM (SF-539) | growth at 10 µM (SK-MEL-5) | growth at 0.01 µM (SW-620 [2]) | growth at 10 µM (K562) | growth at 0.1 µM (DU-145) | growth at 10 µM (HCT-15) | growth at 0.01 µM (HCT-116) | further results
1 | COc1cc(Cl)cc(-c2nn(-c3cccc(NC(=O)c4ccc(N5CCOCC5)c(C(F)(F)F)c4)c3)cc2-c2ccncc2)c1 | 52.3% | 57.9% | 64.2% | 50.2% | 67.8% | 107% | 74% | 52.7% | 38.3% | 17% | 2.6% | 89.6% | 90% | 2% | 71.5% | 96% | 4.03% | 97% | 17.2% | 97% | GI50 (Hs-578T; read-out: GI50): 5.48 µM; CC50 (Hs-578T; [5]): > 100 µM; TGI (Hs-578T; read-out: TGI): > 100 µM; GI50 (Hs-578T; read-out: pGI50 (converted)): 6.46 µM; CC50 (Hs-578T; [6]): > 100 µM; TGI (Hs-578T; read-out: pTGI (converted)): > 100 µM; growth at 10 µM (CAKI-1): 46.7%; growth at 10 µM (MDA-MB-435): 63.4%; growth at 10 µM (IGROV-1): 96.5%; growth at 1 µM (SW-620 [3]): 103%; growth at 10 µM (UACC-257): 63.5%; growth at 10 µM (U-251): 32.3%; growth at 10 µM (CCRF-CEM): 31.7%; growth at 100 µM (MDA-MB-468 [4]): 17%; growth at 10 µM (BT-549): 73%; growth at 10 µM (T47D): 49.2%; growth at 10 µM (OVCAR-5): 78.4%
2 | O=C(Nc1cccc(-n2cc(-c3ccncc3)c(-c3cc(O)cc(Cl)c3)n2)c1)Nc1ccc(Cl)c(C(F)(F)F)c1 | 34.3% | -24.9% | 41.2% | 5.22% | -1.44% | 101% | 84% | 63.4% | -18% | -73% | 14.3% | 45% | 91% | -50% | 23.8% | 97% | 5.24% | 99% | 5.79% | 104% | GI50 (Hs-578T; read-out: GI50): 3.2 µM; CC50 (Hs-578T; [5]): > 100 µM; TGI (Hs-578T; read-out: TGI): > 100 µM; GI50 (Hs-578T; read-out: pGI50 (converted)): 3.31 µM; CC50 (Hs-578T; [6]): > 100 µM; TGI (Hs-578T; read-out: pTGI (converted)): > 100 µM; growth at 10 µM (CAKI-1): 29.1%; growth at 10 µM (MDA-MB-435): 9.57%; growth at 10 µM (IGROV-1): 30.6%; growth at 1 µM (SW-620 [3]): 101%; growth at 10 µM (UACC-257): -40%; growth at 10 µM (U-251): -26.5%; growth at 10 µM (CCRF-CEM): 9.31%; growth at 100 µM (MDA-MB-468 [4]): -29%; growth at 10 µM (BT-549): 47.6%; growth at 10 µM (T47D): 25%; growth at 10 µM (OVCAR-5): 59.3%
